Here are results for one compound from ChEMBL document CHEMBL4052712, “Design and optimization of highly-selective, broad spectrum fungal CYP51 inhibitors” (Bioorg Med Chem Lett, 2017).

Data set [1] concerns the target Lanosterol 14-alpha demethylase (Candida albicans (strain SC5314 / ATCC MYA-2876) (Yeast), UniProt P10613). The data set is described as follows: Inhibition of CYP51 in Candida albicans assessed as inhibition of microbe growth incubated for 48 hrs by CLSI M27-A3 guideline based method.
Data set [2] has as its system Brain. The data set is described as follows: Drug level in Swiss albino mouse brain at 5 mg/kg, po after 48 hrs assessed as relative Cmax level relative to plasma drug level by HPLC/MS/MS method. Format: ADME, organism-based.
The target in data set [3] is T1, Cytochrome P450 11B1, mitochondrial (Homo sapiens, UniProt P15538).
T1 sequence (P15538 whole entry): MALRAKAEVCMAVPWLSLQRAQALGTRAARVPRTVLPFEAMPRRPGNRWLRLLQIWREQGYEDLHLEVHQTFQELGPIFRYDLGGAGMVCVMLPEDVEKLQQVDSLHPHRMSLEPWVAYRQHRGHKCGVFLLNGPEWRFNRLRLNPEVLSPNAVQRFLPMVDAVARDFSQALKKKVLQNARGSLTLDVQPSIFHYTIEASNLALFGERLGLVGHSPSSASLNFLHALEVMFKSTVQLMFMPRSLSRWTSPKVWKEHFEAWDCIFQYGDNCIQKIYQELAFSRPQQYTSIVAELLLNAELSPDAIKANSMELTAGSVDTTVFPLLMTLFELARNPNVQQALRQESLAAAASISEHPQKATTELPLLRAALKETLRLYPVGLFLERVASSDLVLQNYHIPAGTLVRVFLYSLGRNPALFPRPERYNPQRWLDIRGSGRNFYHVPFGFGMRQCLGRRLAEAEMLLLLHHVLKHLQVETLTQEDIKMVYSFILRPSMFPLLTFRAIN
Nature of the data set: Inhibition of CYP11B1 in human hepatocyte microsomes using deoxycortisol substrate by HPLC/MS/MS method. Format: ADME.

For data set [4], the system named is Lung. The data set is described as follows: Drug level in Swiss albino mouse lung at 5 mg/kg, po after 48 hrs assessed as relative Cmax level relative to plasma drug level by HPLC/MS/MS method. It is filed as ADME, organism-based. The following applies: in vivo.
The subject of data set [5] is Brain. The data set is described as follows: Drug level in Swiss albino mouse brain at 5 mg/kg, po after 48 hrs assessed as relative AUC (48 hrs) level relative to plasma drug level by HPLC/MS/MS method. Format: ADME, organism-based.
Data set [6] has as its system Kidney. The data set is described as follows: Drug level in Swiss albino mouse kidney at 5 mg/kg, po after 48 hrs assessed as relative AUC (48 hrs) level relative to plasma drug level by HPLC/MS/MS method. It is filed as ADME, organism-based. The following applies: other tissue.
Data set [7] has as its target T2, Aromatase (Homo sapiens, UniProt P11511).
T2 sequence (P11511 whole entry): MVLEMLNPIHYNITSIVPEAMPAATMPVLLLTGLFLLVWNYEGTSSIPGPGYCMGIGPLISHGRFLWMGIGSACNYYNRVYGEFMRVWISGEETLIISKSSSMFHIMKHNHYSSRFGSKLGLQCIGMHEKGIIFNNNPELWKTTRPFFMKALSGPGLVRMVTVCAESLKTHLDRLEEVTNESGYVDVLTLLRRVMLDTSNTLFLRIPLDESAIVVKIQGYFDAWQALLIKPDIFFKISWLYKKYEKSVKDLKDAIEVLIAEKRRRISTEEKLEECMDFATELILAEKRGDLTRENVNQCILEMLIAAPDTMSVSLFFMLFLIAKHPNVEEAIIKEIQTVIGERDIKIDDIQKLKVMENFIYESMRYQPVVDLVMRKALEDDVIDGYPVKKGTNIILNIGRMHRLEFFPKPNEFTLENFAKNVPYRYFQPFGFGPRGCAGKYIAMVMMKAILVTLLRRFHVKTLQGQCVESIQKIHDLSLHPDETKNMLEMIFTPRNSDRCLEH
Nature of the data set: Inhibition of CYP19 in human hepatocyte microsomes using testosterone substrate by HPLC/MS/MS method. Format: ADME.

Data set [8] concerns the target Cytochrome P450 2C19, Homo sapiens (UniProt P33261). Nature of the data set: Inhibition of CYP2C19 in human hepatocyte microsomes using omeprazole substrate by HPLC/MS/MS method.
For data set [9], the target named is T3, Steroid 17-alpha-hydroxylase/17,20 lyase (Homo sapiens, UniProt P05093).
T3 sequence (P05093 whole entry): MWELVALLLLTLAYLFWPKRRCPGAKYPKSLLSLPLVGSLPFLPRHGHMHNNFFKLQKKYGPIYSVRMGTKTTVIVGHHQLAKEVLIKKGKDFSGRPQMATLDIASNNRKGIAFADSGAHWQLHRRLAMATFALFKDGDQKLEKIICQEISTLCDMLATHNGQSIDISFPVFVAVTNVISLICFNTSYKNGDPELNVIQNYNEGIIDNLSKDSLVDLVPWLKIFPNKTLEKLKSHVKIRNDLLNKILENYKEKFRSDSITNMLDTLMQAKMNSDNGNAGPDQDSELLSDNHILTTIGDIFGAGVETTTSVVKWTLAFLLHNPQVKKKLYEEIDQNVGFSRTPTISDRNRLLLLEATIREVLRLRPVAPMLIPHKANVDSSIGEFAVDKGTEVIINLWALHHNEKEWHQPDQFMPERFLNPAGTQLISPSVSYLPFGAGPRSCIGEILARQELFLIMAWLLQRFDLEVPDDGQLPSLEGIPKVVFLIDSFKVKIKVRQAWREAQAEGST
Nature of the data set: Inhibition of CYP17 hydroxylase in human hepatocyte microsomes using pregnenolone substrate by HPLC/MS/MS method. Format: ADME.

Data set [10] in a line: Cmax in Swiss albino mouse at 5 mg/kg, po measured during 0.5 to 48 hrs post dose by HPLC/MS/MS method. The note with it: in vivo. It is filed as ADME, organism-based. Details: dose 5 mg/kg, route oral.
Data set [11] deals with Lung. The data set is described as follows: Drug level in Swiss albino mouse lung at 5 mg/kg, po after 48 hrs assessed as relative AUC (48 hrs) level relative to plasma drug level by HPLC/MS/MS method. The note with it: other tissue. It is filed as ADME, organism-based.
Data set [12] is described as follows: Half life in Swiss albino mouse lung at 5 mg/kg, po measured during 0.5 to 48 hrs post dose by HPLC/MS/MS method. It is filed as ADME, organism-based.
Data set [13] addresses T3, Steroid 17-alpha-hydroxylase/17,20 lyase. Nature of the data set: Inhibition of CYP17 lyase in human hepatocyte microsomes using 17a-hydroxypregnenolone substrate by HPLC/MS/MS method. It is filed as ADME.
Data set [14] is described as follows: Half life in Swiss albino mouse brain at 5 mg/kg, po measured during 0.5 to 48 hrs post dose by HPLC/MS/MS method. Format: ADME, organism-based.
Data set [15] is described as follows: Tmax in Swiss albino mouse at 5 mg/kg, po measured during 0.5 to 48 hrs post dose by HPLC/MS/MS method. It is filed as ADME, organism-based. The following applies: in vivo.
Data set [16] deals with Kidney. Nature of the data set: Drug level in Swiss albino mouse kidney at 5 mg/kg, po after 48 hrs assessed as relative Cmax level relative to plasma drug level by HPLC/MS/MS method. Format: ADME, organism-based. The note with it: other tissue.
Data set [17] is described as follows: Half life in Swiss albino mouse kidney at 5 mg/kg, po measured during 0.5 to 48 hrs post dose by HPLC/MS/MS method. Format: ADME, organism-based.
The target in data set [18] is Cytochrome P450 2C9 (Homo sapiens, UniProt P11712). The data set is described as follows: Inhibition of CYP2C9 in human hepatocyte microsomes using diclofenac substrate by HPLC/MS/MS method. It is filed as ADME.
Data set [19] is described as follows: AUClast in Swiss albino mouse at 5 mg/kg, po measured during 0.5 to 48 hrs post dose by HPLC/MS/MS method. Format: ADME, organism-based. The arrangement: dose 5 mg/kg, route oral, time 0 - last. The note with it: in vivo.

Cytochrome P450 2C9, sequence (P11712 whole entry): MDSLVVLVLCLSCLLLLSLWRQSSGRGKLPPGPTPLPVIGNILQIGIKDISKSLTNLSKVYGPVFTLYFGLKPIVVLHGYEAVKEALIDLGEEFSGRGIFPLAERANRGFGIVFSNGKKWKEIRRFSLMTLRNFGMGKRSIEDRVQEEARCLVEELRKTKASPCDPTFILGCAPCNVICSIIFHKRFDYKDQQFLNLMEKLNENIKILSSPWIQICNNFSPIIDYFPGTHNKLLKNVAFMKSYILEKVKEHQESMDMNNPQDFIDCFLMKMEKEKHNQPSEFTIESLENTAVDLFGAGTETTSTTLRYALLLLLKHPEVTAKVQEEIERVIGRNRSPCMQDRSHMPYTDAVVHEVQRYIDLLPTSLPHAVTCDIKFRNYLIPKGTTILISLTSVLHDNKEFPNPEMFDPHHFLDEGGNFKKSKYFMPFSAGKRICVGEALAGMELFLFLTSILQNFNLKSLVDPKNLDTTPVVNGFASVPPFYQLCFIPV
Cytochrome P450 2C19, Homo sapiens, sequence (P33261 whole entry, looked up): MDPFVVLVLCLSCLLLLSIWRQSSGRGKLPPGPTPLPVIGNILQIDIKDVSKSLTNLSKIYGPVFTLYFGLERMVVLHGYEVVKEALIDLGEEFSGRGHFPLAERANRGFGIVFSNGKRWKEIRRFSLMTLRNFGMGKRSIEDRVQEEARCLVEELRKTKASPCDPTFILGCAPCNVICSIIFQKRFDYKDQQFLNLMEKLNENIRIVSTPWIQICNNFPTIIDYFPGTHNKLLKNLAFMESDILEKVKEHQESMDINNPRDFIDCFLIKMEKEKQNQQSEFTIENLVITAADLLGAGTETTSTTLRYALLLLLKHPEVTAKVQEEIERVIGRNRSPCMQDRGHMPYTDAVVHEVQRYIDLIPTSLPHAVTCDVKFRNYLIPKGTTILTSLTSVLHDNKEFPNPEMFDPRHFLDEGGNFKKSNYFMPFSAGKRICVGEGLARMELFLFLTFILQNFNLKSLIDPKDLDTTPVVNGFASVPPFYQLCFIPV
Lanosterol 14-alpha demethylase, sequence (P10613 whole entry): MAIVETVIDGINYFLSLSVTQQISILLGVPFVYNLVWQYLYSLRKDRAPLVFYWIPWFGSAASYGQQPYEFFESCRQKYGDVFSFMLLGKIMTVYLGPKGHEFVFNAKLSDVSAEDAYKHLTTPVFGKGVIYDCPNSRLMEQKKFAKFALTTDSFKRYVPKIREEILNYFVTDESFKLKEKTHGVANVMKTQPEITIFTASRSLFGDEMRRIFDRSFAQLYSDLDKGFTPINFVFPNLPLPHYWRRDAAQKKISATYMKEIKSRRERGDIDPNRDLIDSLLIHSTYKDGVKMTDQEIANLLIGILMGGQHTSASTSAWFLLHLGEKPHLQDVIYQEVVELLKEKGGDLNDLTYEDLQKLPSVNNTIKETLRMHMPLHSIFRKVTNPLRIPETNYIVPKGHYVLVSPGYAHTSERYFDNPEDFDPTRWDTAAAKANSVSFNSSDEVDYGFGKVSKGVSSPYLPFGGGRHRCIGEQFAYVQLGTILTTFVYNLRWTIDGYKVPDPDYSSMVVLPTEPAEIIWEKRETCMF

For the compound `N#Cc1ccc(COc2ccc(C#Cc3ccc(C(F)(F)C(O)(Cn4cnnn4)c4ccc(F)cc4F)nc3)cc2)cc1` (single isomer, unassigned; (+)), the MIC50 in data set [1] was 7.8 ng/mL. For the same compound, the Drug uptake amounted to 58% in data set [2]; 116% in data set [4]; 65% in data set [5]; 268% in [6]; 94% in [11]; 270% in data set [16]. Further, the IC50 in data set [3] is more than 100 µM; in [7] it was more than 100 µM; in data set [8], 138 µM; in data set [9] it was more than 100 µM; in data set [13], 38 µM; in data set [18], more than 200 µM. In data set [10], this compound yielded a Cmax of 2500 ng/mL. The half-life in [12], in [14] and in data set [17] was 16 to 19 h in each case. Further, the time of peak concentration (Tmax) in data set [15] is 4 h. Moreover, the area under the curve AUC(0-t) in [19] was 67000 ng·h/mL.
